# Results: patent US20250213527A1, “FORMULATIONS OF PSILOCYBIN ANALOGS AND METHODS OF USE” (priority 2021, published 2025)
# Entries after “also recorded” stand apart in the source; their conditions may differ. Counter-ions that a name gives are not always drawn. Marks after values point to notes of the source that are not given here.
# Legend:
# [1] = Maturation in 12 different solvents with thermal cycling, XRPD; type: physicochemical; conditions: slurries cycled between room temperature and 50 °C (4 hours each) for 3 days
# Protocol: The resulting slurries were subjected to maturation with thermal cycling between room temperature and 50° C. (4 hours at each condition) for 3 days. Solids were then analysed by XRPD.
# [2] = Solubility in FaSSGF (Fasted State Simulated Gastric Fluid) at 37 °C; type: physicochemical; conditions: free base component, average n=2
# Protocol: Preparation of solutions: Solubility tests in FaSSGF were carried out at 37° C. and in water at room temperature for 2 hour and 6 hour timepoints. 50 mg solid was added to 0.5 mL media and incubated on an orbital shaker for 6 hours. (For free base in water 20 mg samples were used). Slurry/solution was sampled at 2 and 6 hours and aliquots were filtered through 0.45 micron PTFE filters. The filtrate was diluted 500 fold with the appropriate (same) media and injected on to UPLC.
# (For free base in water ≥40 mg·mL^−1). […] Results were calculated based on a standard calibration curve of appropriate free base. Values quoted are for the free base component of each salt and are average of two (n=2) determinations.
# [3] = Brain tissue concentrations in rats after intravenous dosing
# [4] = Plasma pharmacokinetics and bioavailability in rats, oral gavage and intravenous (bolus); conditions: for Tmax: rat plasma, label = analyte, IAD = immediately after dosing
# [5] = Psilocin stability in 0.1 M acid solutions with or without metal ions, 40 °C; type: physicochemical; conditions: up to 24 h
# From the text: Ascorbic acid (AsA), acetic acid (AcA), tartaric acid (TA), fumaric acid (FA), citric acid (CA), malic acid (MA), benzenesulfonic acid (BSA), stearic acid (SA), sodium citrate dihydrate, monosodium phosphate hydrate, disodium phosphate were purchased from Sigma Aldrich. Aluminum (III) chloride (AlCl3) and iron (III) chloride (FeCl3) were purchased from Sigma Aldrich. Antioxidants, i.e., ethylenediaminetetraacetic acid (EDTA), ascorbic acid (AsA), L-cysteine (Cys), sodium metabisulfite (NamBiSO3) and propyl gallate (PG) were purchased from Sigma Aldrich. Hydroxypropyl-β-cyclodextrin (CAVASOL® W7 HP, CAVITRON® W7 HP7) and methyl-β-cyclodextrin (CAVASOL® W7 M) were provided by DuPont.
# The following chromatographic conditions were used:
# Diluent. The diluent used in the below studies was prepared as follows: 100 mL of acetonitrile (ACN) was mixed with 800 mL of water and 100 mL of 1.0 M citric acid and mixed well to prepare 1 L of diluent.
# The stability of psilocin in 0.1 M solutions of various acids was tested.
# Test solutions: To prepare the test solutions, 0.1 M solutions of AsA, AcA, TA, FA, CA, MA, BSA, and SA were prepared in DI water.
# [6] = Psilocin stability in 0.1 M sodium citrate buffer at 4, 23 and 40 °C; type: physicochemical
# Protocol: (§1) Preparation of 0.1 M sodium citrate buffer (pH 6.01): 2.427 g of sodium citrate dihydrate and 0.336 g of citric acid were dissolved in 80 ml of DI water. The pH was adjusted to 6.0 using a 1 M NaOH solution. The final volume was adjusted to 100 ml.
# [7] = Psilocin stability comparison between sodium citrate and phosphate buffer, 40 °C; type: physicochemical; conditions: 0.1 M, 24 h
# Protocol: The effect of buffer type and pH on the stability of psilocin was assessed.
# as §1
# Preparation of 0.1 M phosphate buffer (pH 6.0 and pH 7.5): Monosodium phosphate (0.339 g, 0.002 moles) and disodium phosphate (2.021 g, 0.014 moles) were dissolved in 80 ml water and the pH was adjusted as necessary using sodium hydroxide or phosphoric acid. The volume was adjusted to 100 ml using water.
# Test solutions: Psilocin (1 mg/ml) was mixed with (i) 0.1 M sodium citrate buffer (pH 6.01), (ii) 0.1 M phosphate buffer (pH 6.0), and (iii) 0.1 M phosphate buffer (pH 7.5) in a 1:1 v/v ratio.
# [8] = Long-term (up to 25 days) psilocin stability in citric acid solution and sodium citrate buffer; type: physicochemical; conditions: 0.1 M
# Protocol: The long-term stability (up to 25 days) of psilocin in a citric acid solution (0.1 M, pH 1.60) and a sodium citrate buffer (0.1 M, pH 6.01) at 4C and 23° C. was assessed.
# as §1
# Test solutions: Psilocin (1 mg/ml), was mixed with (i) sodium citrate buffer (0.1 M, pH 6.01) and (ii) citric acid solution (0.1 M, pH 1.60) in 1:1 v/v. The samples were stored at 4° C. and 23° C., and aliquots were sampled at designated timepoints (days 0, 7, 17, and 25).
# [9] = Psilocin stability with cyclodextrin complexes, 40 °C; conditions: 1% w/w cyclodextrin, up to 24 h
# [10] = Psilocin stability in dilute citric acid solution at 4, 23 and 40 °C
# [11] = Psilocin stability with antioxidants against metal induced degradation, 40 °C; conditions: 20 μM antioxidant, up to 24 h
# [12] = Observation of isolated freeze dried solid; type: physicochemical; conditions: freeze dried citrate salt
# Protocol: This gave an oil. Additional water was added until a solution was obtained. […] The obtained citrate salt was amorphous as shown by X-ray powder diffraction (XRPD) pattern in FIG. 37A.
# [13] = Group 3, IV, psilocybin dosed 2.8 mg/kg
smiles,measurement,setting,value
"[2H]C([2H])([2H])N(C([2H])([2H])[2H])C([2H])([2H])C([2H])([2H])c1c[nH]c2cccc(O)c12 [Compound I-3j, Benzoate Salt of 3-(2-(bis(methyl-d3)amino)ethyl-1,1,2,2-d4)-1H-indol-4-ol]",crystalline form by XRPD after maturation in 12 different solvents,[1],retained their initial crystalline form (pattern 1)
same,Solubility FaSSGF 6 hours,[2],12.79 mg/mL
"CN(C)CCc1c[nH]c2cccc(OP(=O)(O)O)c12 [psilocybin, Psilocybin]",brain concentrations of psilocybin versus plasma,[3],brain concentrations of psilocybin are low
same,bioavailability,"[4]; male, Sprague Dawley, rat, plasma, po, 14 mg/kg",< 0.1%
same,Tmax,[4]; [13],IAD
"CN(C)CCc1c[nH]c2cccc(O)c12 [Compound I-7c, Hemi-Fumarate Salt of 3-(2-(dimethylamino)ethyl)-1H-indol-4-ol]",crystalline form by XRPD after maturation in 12 different solvents,[1],complex polymorphism with multiple crystalline patterns obtained
same,Solubility FaSSGF 6 hours,[2],≥ 52.25* mg/mL
"CN(C)CCc1c[nH]c2cccc(O)c12 [Compound I-7, 3-(2-(dimethylamino)ethyl)-1H-indol-4-ol]","solution stability in 0.1 M acid solutions (solution-phase salts), with or without metal salts",[5]; all tested acids,excellent stability
same,solution stability of psilocin without acid,[5],nearly all psilocin being degraded within 24 hours
same,solution stability without acid in presence of Fe3+ and Al3+ metal ions,[5],significant psilocin degradation
same,effect of metal salts (Fe3+ and Al3+) in citrate buffer,[6]; 0.1 M sodium citrate buffer pH 6.01,no detrimental effects
same,solution stability in non-citrate buffered solutions with Fe3+ and Al3+,"[6]; 4, 23 and 40 °C",significant psilocin degradation
same,solution stability without sodium citrate buffer,"[6]; 4, 23 and 40 °C",nearly all psilocin being degraded by the 18 hour time point
same,degradation of psilocin in 0.1 M sodium citrate buffer,"[6]; 40 °C, up to 24 h",10-15%
same,solution stability in 0.1 M sodium citrate buffer,"[6]; pH 6.01, 4 °C and room temperature, up to 24 h",greatly stabilized psilocin
same,stability in phosphate buffer pH 6.0 versus pH 7.5,[7],better stability than at pH 7.5
same,long-term stability in citric acid solution,"[8]; pH 1.60, 4 °C and 23 °C",only minimal degradation
same,"long-term stability in sodium citrate buffer, cold storage","[8]; pH 6.01, 4 °C",remained stable for up to 17 days
same,"long-term stability in sodium citrate buffer, room temperature","[8]; pH 6.01, 23 °C",degradation of psilocin began within a week
same,stability with cyclodextrins against high temperature or metal induced degradation,[9],cyclodextrins did not impart stability
same,solution stability without citric acid,"[10]; 4, 23 and 40 °C",nearly all psilocin being degraded by the 18 hour time point
same,solution stability without citric acid in presence of Fe3+ and Al3+,"[10]; 4, 23 and 40 °C",significant psilocin degradation
same,solution stability with small quantities of citric acid (pH 3.2),"[10]; 4 °C and room temperature (23 °C), up to 24 h",greatly enhanced the stability of psilocin
same,psilocin stabilization (% psilocin remaining) with small quantities of citric acid,"[10]; 40 °C, 24 hour time point",30%
same,"stability against metal salts with antioxidants (EDTA, ascorbic acid, L-cysteine, sodium metabisulfite, propyl gallate)",[11],none of the antioxidants tested were able to provide stability
same,Tmax,"[4]; Group 1, IV, psilocin + psilocin-d10 1 + 1 mg/kg",IAD
same,Tmax,[4]; [13],IAD
same,"onset, duration and variability of plasma exposure versus oral psilocybin","[4]; rats, oral","a faster onset, a shorter duration of effect, and less variability in drug exposure than oral psilocybin"
"CN(C)CCc1c[nH]c2cccc(O)c12 [Compound I-7j, Benzoate Salt of 3-(2-(dimethylamino)ethyl)-1H-indol-4-ol]",crystalline form by XRPD after maturation in 12 different solvents,[1],retained their initial crystalline form; also recorded: the same pattern 1 by XRPD was observed
same,Solubility FaSSGF 6 hours,[2],9.79 mg/mL
"CN(C)CCc1c[nH]c2cccc(O)c12 [Compound I-7e, Citrate Salt of 3-(2-(dimethylamino)ethyl)-1H-indol-4-ol]",behaviour of isolated amorphous solid,[12],hygroscopic and rapidly became sticky
"CN(C)CCc1c[nH]c2cccc(O)c12 [Compound I-7a, benzenesulfonate salt of 3-(2-(dimethylamino)ethyl)-1H-indol-4-ol]",crystalline form by XRPD after maturation in 12 different solvents,[1],retained their initial crystalline form (pattern 1)
"CN(C)CCc1c[nH]c2cccc(O)c12 [Compound I-7b, tartrate salt of 3-(2-(dimethylamino)ethyl)-1H-indol-4-ol]",crystalline form by XRPD after maturation in 12 different solvents,[1],retained their initial crystalline form
